Reference: US20070098781A1, “Modified release compositions for DPP-IV inhibitors” (priority 2005, published 2007)
Where two headings read alike, the source gives them in different places.

How the values were obtained:
[1] = Pharmacoscintigraphic evaluation of regional drug absorption: plasma pharmacokinetics after site-specific gastrointestinal delivery (Enterion capsule); format: in vivo, human; settings: 400 mg, healthy volunteers; for AUC / Cmax: both sexes, human, plasma, oral; for AUC: read-out: Mean (SD) AUC; for Cmax: read-out: Mean (SD) Cmax
Procedure: (§1) A pharmacoscintigraphic evaluation of the regional drug absorption and pharmacodynamics of (2S)-1-{[2-(5-Methyl-2-phenyl-oxazol-4-yl)-ethylamino]-acetyl}-pyrrolidine-2-carbonitrile mesylate in up to 9 healthy male or female volunteers following administration to four different sites of the gastrointestinal tract: stomach, proximal small bowel, ileum and ascending colon was carried out. The study was conducted as an open label, 4-way cross-over design consisting of 4 study periods of approximately 2-3 days duration, each separated by washout period of at least 4 days.
(§2) During each study period, 400 mg (2S)-1-{[2-(5-Methyl-2-phenyl-oxazol-4-yl)-ethylamino]-acetyl}-pyrrolidine-2-carbonitrile mesylate was delivered to the appropriate gastrointestinal target using Enterion™ capsule technology. The capsule was administered with water containing a radiolabelled marker (^99mTc-DTPA) which was used to define the gastrointestinal anatomy and the movement of the capsule was followed by means of an ^111In marker within the device. The location of both radiolabels was monitored on images obtained from a dual wavelength gamma camera. Capsule activation and thereby drug release was achieved by applying an external signal. The release was planned to occur within 5 hours of the administration of a standardised low calorie meal.
(§3) The pharmacokinetics of (2S)-1-{[2-(5-Methyl-2-phenyl-oxazol-4-yl)-ethylamino]-acetyl}-pyrrolidine-2-carbonitrile mesylate were determined after each administration by monitoring plasma concentrations of parent drug and metabolites. The pharmacodynamic response was assessed by measuring the concentrations of circulating markers (glucose, insulin, glucagon and GLP-1) for up to 4 hours following an oral glucose tolerance test (OGTT), which itself was carried out 2 hours after release of the drug substance. A control OGTT response (i.e. no drug treatment) was established for each subject before the first treatment period began.

[2] = tested on: circulating markers (glucose, insulin, glucagon and GLP-1); assay: Pharmacodynamic response after site-specific delivery: circulating markers following an oral glucose tolerance test (OGTT); format: in vivo, human; settings: healthy volunteers, 400 mg; for Mean Delta Blood Glucose AUEC / Mean Plasma GLP-1 AUEC / Mean Plasma Insulin AUEC: OGTT 2 h after release, baseline corrected
Procedure: as §1, §2, §3

[3] = Triple-cannulated cynomolgus monkey model: plasma PK after site-specific delivery; format: in vivo; settings: 5 mg/kg; for AUC: plasma, 5 mg/kg in solution
Procedure: (§4) A study was conducted in an in-house cynomolgus monkey model, in which permanent cannulae had been surgically attached to various sections of their intestine. This animal model allows compounds to be delivered to precise regions of the intestine in the intact animal in vivo. A single dose cross-over study was performed in three animals, where 5 mg/kg of (2S)-1-{[1,1-Dimethyl-3-(4-pyridin-3-yl-imidazol-1-yl)-propylamino]-acetyl}-pyrrolidine-2-carbonitrile was delivered (with sufficient wash out periods in between), in solution by gavage to the stomach or via the cannulae to the duodenum, the jejunum-ileum junction or the top of the ascending colon, respectively. An oral glucose challenge was performed in each animal for each treatment 2 hours post-dose of compound (plus a pre-study control). Full plasma PK and DPPIV inhibition profiles were obtained for each treatment. Blood glucose profiles were measured for 3 hours post-glucose challenge.

plasma DPPIV = assay: Triple-cannulated cynomolgus monkey model: plasma DPPIV inhibition after site-specific delivery; format: in vivo; settings: for Mean Plasma DPPIV Inhibition: 5 mg/kg in solution
Procedure: as §4

blood glucose = assay: Triple-cannulated cynomolgus monkey model: blood glucose after oral glucose challenge; format: in vivo; settings: 5 mg/kg; for Mean Delta Glucose AUEC: oral glucose challenge 2 hours post-dose
Procedure: as §4

[4] = delivery to the ileum-jejenum junction or colon, versus other sites
[5] = dosing region ascending colon (cannula)
[6] = dosing region duodenum (cannula)
[7] = dosing region ileum-jejunum junction (cannula)

With `CS(=O)(=O)O.Cc1oc(-c2ccccc2)nc1CCNCC(=O)N1CCC[C@H]1C#N` [(2S)-1-{[2-(5-Methyl-2-phenyl-oxazol-4-yl)-ethylamino]-acetyl}-pyrrolidine-2-carbonitrile mesylate] the AUC ([1]; dosing region colon) was 3540 ng·h/mL, the Cmax ([1]; dosing region colon) was 736 ng/mL and the AUC ([1]; dosing region duodenum) was 14200 ng·h/mL. It also gave a Cmax ([1]; dosing region duodenum) of 7580 ng/mL, an AUC ([1]; dosing region ileum) of 12300 ng·h/mL and a Cmax ([1]; dosing region ileum) of 5420 ng/mL. For the same compound, the AUC ([1]; dosing region stomach) was 12200 ng·h/mL, the Cmax ([1]; dosing region stomach) was 5570 ng/mL and the “absorption and elimination rate (plasma profiles)” value ([1]; all routes of administration except for the colon) was “broadly similar”. The “period for which plasma concentrations were sustained” value ([1]; colon delivery) was 6-8 hours post dose, the plasma concentrations ([1]; colon delivery versus other routes) was “substantially lower” and the Average exposure ([1]; delivery to the proximal small bowel (duodenum) versus other sites) was “slighter greater”. For the same compound, the “Mean Delta Blood Glucose AUEC” value ([2]; dosing region PSB) was 130 % Control, the “Mean Plasma GLP-1 AUEC” value ([2]; dosing region PSB) was 180 % Control and the “Mean Plasma Insulin AUEC” value ([2]; dosing region PSB) was 160 % Control. The “Mean Delta Blood Glucose AUEC” value ([2]; dosing region colon) was 83 % Control, the “Mean Plasma GLP-1 AUEC” value ([2]; dosing region colon) was 87 % Control and the “Mean Plasma Insulin AUEC” value ([2]; dosing region colon) was 101 % Control. For the same compound, the “Mean Delta Blood Glucose AUEC” value ([2]; dosing region ileum) was 47 % Control, the “Mean Plasma GLP-1 AUEC” value ([2]; dosing region ileum) was 340 % Control and the “Mean Plasma Insulin AUEC” value ([2]; dosing region ileum) was 47 % Control. The “Mean Delta Blood Glucose AUEC” value ([2]; dosing region stomach) was 55 % Control, the “Mean Plasma GLP-1 AUEC” value ([2]; dosing region stomach) was 151 % Control and the “Mean Plasma Insulin AUEC” value ([2]; dosing region stomach) was 65 % Control. For the same compound, the “Mean blood glucose area under the effect curve (AUEC) following an OGTT vs control” value ([2]; both stomach and ileal delivery) was “substantially decreased” and the “active glucagon-like peptide 1 (primary mechanistic biomarker)” value ([2]; only ileal delivery) was “sustained systematic increase”.
For `CC(C)(CCn1cnc(-c2cccnc2)c1)NCC(=O)N1CCC[C@H]1C#N` [(2S)-1-{[1,1-Dimethyl-3-(4-pyridin-3-yl-imidazol-1-yl)-propylamino]-acetyl}-pyrrolidine-2-carbonitrile], the “systemic exposure to the compound” value [3, 4] was “lowest systemic exposure”, the AUC [3, 5] was 354 ng·h/mL and the AUC [3, 6] was 3890 ng·h/mL. For the same compound, the AUC [3, 7] was 1350 ng·h/mL, the AUC ([3]; po, dosing region stomach (gavage)) was 2280 ng·h/mL and the “Mean Plasma DPPIV Inhibition” value (plasma DPPIV; [5]) was 45 % baseline. The “Mean Plasma DPPIV Inhibition” value (plasma DPPIV; [6]) was 60 % baseline, the “Mean Plasma DPPIV Inhibition” value (plasma DPPIV; [7]) was 45 % baseline and the “Mean Plasma DPPIV Inhibition” value (plasma DPPIV; dosing region stomach (gavage)) was 65 % baseline. For the same compound, the “average plasma DPPIV inhibition” value (plasma DPPIV; 5 mg/kg, delivery to the ileum-jejenum junction or colon, versus other sites) was “lowest average plasma DPPIV inhibition”, the effect on glucose (blood glucose; [4]) was “highest effect on glucose” and the “blood glucose compared to control” value (blood glucose; delivery to the stomach, ileum or the ascending colon) was “reduction in blood glucose”. For the same compound, the “Mean Delta Glucose AUEC” value (blood glucose; dosing region ascending colon) was 52 % Control, the “Mean Delta Glucose AUEC” value (blood glucose; dosing region duodenum) was 116 % Control and the “Mean Delta Glucose AUEC” value (blood glucose; dosing region ileum-jejunum junction) was 76 % Control. The “Mean Delta Glucose AUEC” value (blood glucose; dosing region stomach) was 88 % Control.
